Patent US20200206198A1, “CFTR CHANNEL ACTIVATOR FOR USE IN THE TREATMENT AND/OR PREVENTION OF GLUTEN SENSITIVITY CONDITIONS” (priority 2017, published 2020)

System: Caco-2 cells
Assay: Innate immune activation in Caco-2 cells (NLRP3, caspase-1, IL-15, NF-κB p65)
Assay type: cell-based, human
Procedure: Human colon adenocarcinoma-derived Caco-2 and T84 cells were obtained from the ATCC. Cells were maintained in T25 flask in Modified Eagle Medium (MEM) for Caco-2, or Ham's F12+DMEM (1:1) for T84, supplemented with 10% fetal bovine serum (FBS), 2 mM Glutamine+1% Non Essential Amino Acids (NEAA) and the antibiotics penicillin\streptomycin (100 units/ml) (all reagents from Lonza) (Luciani, A., et al. 2010. Cells were grown in Transwells (Corning, 3470 or 3460) under the normal condition (Luciani, A., et al. 2012). Briefly, 8×10^4 or 5×10^5 cells were seeded in 6.5-mm diameter or 12-mm diameter, respectively, and grown until the RT reached 800 to 1,200 Ω·cm2. Transwells with a pore size of 0.4 μm were used. Medium in both the apical and basolateral chambers was changed every other day. Cells were treated with 20 μg/ml of either α-gliadin peptide P31-43 or […]-69 or scrambled PGAV or modified P31-43 either biotin-tagged or not, for different time point (from 1 h short challenge up to 24 h). Cells were also treated with 50 or 100 μg/ml of […]-68 or PGAV peptides for 3 h. Caco-2 or T84 cells were also treated with: CFTR potentiators VX-770 (10 μM) or VX-532 (20 μM) (Selleck chemicals) or Genistein (10 μM) (Sigma-Aldrich) or in presence or absence of CFTR inhibitor172 (CFTRinh172, 20 μM) or 3-methyl-adenine (3-MA, 20 μM) (Calbiochem), Z-DON (20 nM, Zedira) or BAPTA-AM (10 μM, Calbiochem). The whole lysate or membrane fraction proteins of cell lines and mice intestine homogenates were obtained from treated and untreated cells or mice as described. The equal amount of protein were resolved by SDS-PAGE gel and blotted with antibodies against: SQSTM1, (Sigma Aldrich, 108k4767) 1:1000, PPARγ (Santa Cruz Biotechnology, sc7273) 1:500, BECN1 (Abcam, ab58878) 1:1000, CFTR clone M3A7 (Abcam, ab4067) 1:500, phospho-ERK1/2 (php42/44, Cell Signaling Technology, #91101) 1:1000, UVRAG (Santa Cruz Biotechnology sc8215) 1:1000, NHERF-1 (BD, 611161) 1:1000, EZRIN (BD, 610603) 1:1000, hVps34 (SigmaV9764) 1:300, biotin (Abcam, ab1227) 1:2000, PKAr2a (BD, 610625) 1:500, Ubiquitin (Cell Signaling clone P4D1, #3936) 1:1000, CHIP (Calbiochem PC711) 1:500, Caspase-1 p10 (M-20) (Santa Cruz Biotechnology, sc-514) 1:200, NLRP3 (Abcam, ab4207), 1:500, IDO1 (monoclonal; cv152) 1:1000^[80], used as primary antibodies. Normalization was performed by probing the membrane with anti-β-actin (Cell Signaling, #4970) 1:1000, anti-Gapdh (Sigma-Aldrich, G8795) 1:1000 and anti-flottilin (Abcam ab15148) 1:1000 antibodies. Immunoprecipitations of endogenous proteins were performed on 500 μg of lysates from Caco-2 cells. The proteins were incubated for 12-18 h at 4° C. with 10 ug\ml of specific antibody followed by the addition of Protein A/G-agarose beads for 4 h at 4° C. The beads were then washed three times with lysis buffer and Laemmli's sample buffer was added to the samples. The membranes were then blotted with: CFTR clone CF3 (Abcam, ab2784) 1:1000, TG2 (clone CUB7402; NeoMarkers) 1:1000, CHIP (Calbiochem PC711) 1:500, Ubiquitin (Cell Signaling clone P4D1 3936), isopeptide (Abcam 422) 1:1000, PKAR2 (BD 610625) 1:500. For cytoplasmic and nuclear extracts human colorectal carcinoma Caco-2 cells were harvested, washed in cold PBS twice, and centrifuged at 6000 rpm for 5 min in cold room to collect pellets. […] The protein concentrations were measured by Bradford protein assay (Protein Reagent, Bio-Rad). […]

Row | Compound | NF-κB p65 translocation into the nucleus (Caco-2 cells after incubation with peptide) | effect on P31-43-induced NF-κB p65 nuclear translocation (Caco-2 cells) | effect on P31-43-induced NLRP3 expression (Caco-2 cells) | effect on P31-43-induced caspase-1 cleavage (Caco-2 cells) | effect on P31-43-induced production of IL-15 (Caco-2 cells, ELISA, p<0.001)
1 | α-gliadin peptide LGQQQPFPPQQPY (SEQ ID 1), induces an enterocyte stress response (P31-43 sequence of alpha-gliadin) | NF-κB p65 translocation into the nucleus was observed |  |  |  | 
2 | CC(C)(C)c1cc(C(C)(C)C)c(NC(=O)c2c[nH]c3ccccc3c2=O)cc1O [VX-770, N-(2,4-di-tert-butyl-5-hydroxyphenyl)-4-oxo-1,4-dihydroquinoline-3-carboxamide] |  | suppressed | prevented | prevented | prevented the P31-43-induced production of IL-15
